The values that follow are results of earlier work, collected in US20240374540A1, “FORMULATIONS FOR THE TREATMENT OF OCULAR SURFACE DISEASES AND RELATED METHODS” (priority 2016, published 2024).

The test system of this series is AQP5. The conditions noted are these: human airway epithelial cells (A459 cells).

The structures appear in SMILES notation.

In the case of `Nc1c(Br)cc(Br)cc1CN[C@H]1CC[C@H](O)CC1` [ambroxol, Ambroxol], the “expression of AQP5” value is recorded as “stimulate the expression of AQP5”.
